Results as given in patent publication US10392383B2, “3-(1H-benzo[d]imidazol-2-yl)-1H-pyrazolo[4,3-b]pyridines and therapeutic uses thereof” (Samumed, LLC, priority 2015, dated 2019).

System: Wnt activity (Sp5-Luc reporter, Wnt-responsive promoter) in SW480 colon carcinoma cells
Assay: Wnt activity screening assay: Sp5-Luc reporter gene assay in SW480 cells
Assay type: cell-based
Conditions: Homo sapiens; for EC50: overnight incubation, 10-point curve starting from 10 μM; for inhibition at 10 µM: read-out: percent inhibition at 10 μM (given for EC50 of >10 μM)
Text: The screening assay for Wnt activity is described as follows. Reporter cell lines can be generated by stably transducing cancer cell lines (e.g., colon cancer) or primary cells (e.g., IEC-6 intestinal cells) with a lentiviral construct that includes a Wnt-responsive promoter driving expression of the firefly luciferase gene.
SW480 colon carcinoma cells were transduced with a lentiviral vector expressing luciferase with a human Sp5 promoter consisting of a sequence of eight TCF/LEF binding sites. SW480 cells stably expressing the Sp5-Luc reporter gene and a hygromycin resistance gene were selected by treatment with 150 μg/mL of hygromycin for 7 days. These stably transduced SW480 cells were expanded in cell culture and used for all further screening activities. Each compound was dissolved in DMSO as a 10 mM stock and used to prepare compound source plates. Serial dilution (1:3, 10-point dose-response curves starting from 10 μM) and compound transfer was performed using the ECHO 550 (Labcyte, Sunnyvale, Calif.) into 384-well white solid bottom assay plates (Greiner Bio-One) with appropriate DMSO backfill for a final DMSO concentration of 0.1%. For Sp5-Luc reporter gene assays, the cells were plated at 4,000 cells/well in 384-well plates with medium containing 1% fetal bovine serum and incubated overnight at 37° C. and 5% CO2. Following incubation, 20 μl of BrightGlo luminescence reagent (Promega) was added to each well of the 384-well assay plates. The plates were placed on an orbital shaker for 2 min and then luminescence was quantified using the Envision (Perkin Elmer) plate reader. Readings were normalized to DMSO only treated cells, and normalized activities were utilized for EC50 calculations using the dose-response log (inhibitor) vs. response-variable slope (four parameters) nonlinear regression feature available in GraphPad Prism 5.0 (or Dotmatics). For EC50 of >10 μM, the percent inhibition at 10 μM is provided.

Row | Structure (SMILES) | EC50 | inhibition at 10 µM
1 | Fc1cccc(-c2cccc3[nH]c(-c4n[nH]c5ccc(-c6cncc(CN7CCC(F)(F)C7)c6)nc45)nc23)c1 [Compound 26, 5-(5-((3,3-Difluoropyrrolidin-1-yl)methyl)pyridin-3-yl)-3-(4-(3-fluorophenyl)-1H-benzo[d]imidazol-2-yl)-1H-pyrazolo[4,3-b]pyridine] | 2.1 µM | 
2 | CC(C)C(=O)Nc1cncc(-c2ccc3[nH]nc(-c4nc5c(-c6ccccc6F)cccc5[nH]4)c3n2)c1 [Compound 65, N-(5-(3-(4-(2-fluorophenyl)-1H-benzo[d]imidazol-2-yl)-1H-pyrazolo[4,3-b]pyridin-5-yl)pyridin-3-yl)isobutyramide] | 5.1 µM | 
3 | CC(C)(C)CC(=O)Nc1cncc(-c2ccc3[nH]nc(-c4nc5c(-c6ccccc6F)cccc5[nH]4)c3n2)c1 [Compound 72, N-(5-(3-(4-(2-Fluorophenyl)-1H-benzo[d]imidazol-2-yl)-1H-pyrazolo[4,3-b]pyridin-5-yl)pyridin-3-yl)-3,3-dimethylbutanamide] | > 10 µM | 11.6%
4 | O=C(Nc1cncc(-c2ccc3[nH]nc(-c4nc5c(-c6ccccc6F)cccc5[nH]4)c3n2)c1)C1CCCC1 [Compound 78, N-(5-(3-(4-(2-Fluorophenyl)-1H-benzo[d]imidazol-2-yl)-1H-pyrazolo[4,3-b]pyridin-5-yl)pyridin-3-yl)cyclopentanecarboxamide] | > 10 µM | 29%
5 | Fc1ccccc1-c1cccc2[nH]c(-c3n[nH]c4ccc(-c5cncc(CNCC6CCCC6)c5)nc34)nc12 [Compound 81, 1-Cyclopentyl-N-((5-(3-(4-(2-fluorophenyl)-1H-benzo[d]imidazol-2-yl)-1H-pyrazolo[4,3-b]pyridin-5-yl)pyridin-3-yl)methyl)methanamine] | 1.14 µM | 
6 | c1ccc(CNCc2cncc(-c3ccc4[nH]nc(-c5nc6c(-c7cccnc7)cccc6[nH]5)c4n3)c2)cc1 [Compound 108, N-Benzyl-1-(5-(3-(4-(pyridin-3-yl)-1H-benzo[d]imidazol-2-yl)-1H-pyrazolo [4,3-b]pyridin-5-yl)pyridin-3-yl)methanamine] | 2.3 µM | 
7 | c1cc(-c2ccncc2)c2nc(-c3n[nH]c4ccc(-c5ccncc5)nc34)[nH]c2c1 [Compound 130, 5-(Pyridin-4-yl)-3-(4-(pyridin-4-yl)-1H-benzo[d]imidazol-2-yl)-1H-pyrazolo [4,3-b]pyridine] | > 10 µM | 39.7%
8 | O=C(Nc1cncc(-c2ccc3[nH]nc(-c4nc5c(-c6ccncc6)cccc5[nH]4)c3n2)c1)C1CCCCC1 [Compound 135, N-(5-(3-(4-(pyridin-4-yl)-1H-benzo[d]imidazol-2-yl)-1H-pyrazolo[4,3-b]pyridin-5-yl)pyridin-3-yl)cyclohexanecarboxamide] | > 10 µM | 5.4%
9 | O=C(Nc1cncc(-c2ccc3[nH]nc(-c4nc5c(-c6ccccn6)cccc5[nH]4)c3n2)c1)c1ccccc1 [Compound 151, N-(5-(3-(4-(Pyridin-2-yl)-1H-benzo[d]imidazol-2-yl)-1H-pyrazolo[4,3-b]pyridin-5-yl)pyridin-3-yl)benzamide] | > 10 µM | 34.2%
10 | CCCCC(=O)Nc1cncc(-c2ccc3[nH]nc(-c4nc5c(-c6ccccn6)cccc5[nH]4)c3n2)c1 [Compound 159, N-(5-(3-(4-(Pyridin-2-yl)-1H-benzo[d]imidazol-2-yl)-1H-pyrazolo[4,3-b]pyridin-5-yl)pyridin-3-yl)pentanamide] | > 10 µM | 11.3%
11 | CN(C)c1cncc(-c2ccc3[nH]nc(-c4nc5c(N6CCCCC6)cccc5[nH]4)c3n2)c1 [Compound 175, N,N-dimethyl-5-(3-(4-(piperidin-1-yl)-1H-benzo[d]imidazol-2-yl)-1H-pyrazolo[4,3-b]pyridin-5-yl)pyridin-3-amine] | 2.13 µM | 
12 | CN1CCN(c2cccc3[nH]c(-c4n[nH]c5ccc(-c6cncnc6)nc45)nc23)CC1 [Compound 251, 3-(4-(4-Methylpiperazin-1-yl)-1H-benzo[d]imidazol-2-yl)-5-(pyrimidin-5-yl)-1H-pyrazolo[4,3-b]pyridine] | > 10 µM | 4.7%
13 | O=C(Nc1cncc(-c2ccc3[nH]nc(-c4nc5c(-c6ccsc6)cccc5[nH]4)c3n2)c1)c1ccccc1 [Compound 291, N-(5-(3-(4-(Thiophen-3-yl)-1H-benzo[d]imidazol-2-yl)-1H-pyrazolo[4,3-b]pyridin-5-yl)pyridin-3-yl)benzamide] | > 10 µM | 42.5%
14 | Cc1ccc(-c2cccc3[nH]c(-c4n[nH]c5ccc(-c6cncc(NC(=O)C7CCCC7)c6)nc45)nc23)s1 [Compound 414, N-(5-(3-(4-(5-Methylthiophen-2-yl)-1H-benzo[d]imidazol-2-yl)-1H-pyrazolo [4,3-b]pyridin-5-yl)pyridin-3-yl)cyclopentanecarboxamide] | > 10 µM | 7.2%
15 | CS(=O)(=O)NCc1cc(F)cc(-c2cccc3[nH]c(-c4n[nH]c5ccc(-c6cncc(NC(=O)c7ccccc7)c6)nc45)nc23)c1 [Compound 487, N-(5-(3-(4-(3-Fluoro-5-(methylsulfonamidomethyl)phenyl)-1H-benzo[d]imidazol-2-yl)-1H-pyrazolo[4,3-b]pyridin-5-yl)pyridin-3-yl)benzamide] | > 10 µM | 0%
16 | c1cc(-c2ccncc2)c2nc(-c3n[nH]c4ccc(-c5cncc(OC6CCNCC6)c5)nc34)[nH]c2c1 [Compound 576, 5-(5-(Piperidin-4-yloxy)pyridin-3-yl)-3-(4-(pyridin-4-yl)-1H-benzo[d]imidazol-2-yl)-1H-pyrazolo[4,3-b]pyridine] | > 10 µM | 25.7%
17 | c1ccc(COc2cncc(-c3ccc4[nH]nc(-c5nc6c(-c7ccncc7)cccc6[nH]5)c4n3)c2)cc1 [Compound 582, 5-(5-(Benzyloxy)pyridin-3-yl)-3-(4-(pyridin-4-yl)-1H-benzo[d]imidazol-2-yl)-1H-pyrazolo[4,3-b]pyridine] | > 10 µM | 39.1%
18 | c1cc(-c2ccncc2)c2nc(-c3n[nH]c4ccc(-c5cnccn5)nc34)[nH]c2c1 [Compound 584, 5-(Pyrazin-2-yl)-3-(4-(pyridin-4-yl)-1H-benzo[d]imidazol-2-yl)-1H-pyrazolo[4,3-b]pyridine] | > 10 µM | 7.4%
19 | O=C(CC1CCNCC1)Nc1cncc(-c2ccc3[nH]nc(-c4nc5c(-c6ccccn6)cccc5[nH]4)c3n2)c1 [Compound 593, 2-(Piperidin-4-yl)-N-(5-(3-(4-(pyridin-2-yl)-1H-benzo[d]imidazol-2-yl)-1H-pyrazolo[4,3-b]pyridin-5-yl)pyridin-3-yl)acetamide] | > 10 µM | 26.6%
20 | Cc1cn(-c2cccc3[nH]c(-c4n[nH]c5ccc(C6=CCNCC6)nc45)nc23)cn1 [Compound 618, 3-(4-(4-Methyl-1H-imidazol-1-yl)-1H-benzo[d]imidazol-2-yl)-5-(1,2,3,6-tetrahydropyridin-4-yl)-1H-pyrazolo[4,3-b]pyridine] | > 10 µM | 1.2%
21 | Cc1cn(-c2cccc3[nH]c(-c4n[nH]c5ccc(-c6cncc(N7CC(N)C7)n6)nc45)nc23)cn1 [Compound 622, 1-(6-(3-(4-(4-Methyl-1H-imidazol-1-yl)-1H-benzo[d]imidazol-2-yl)-1H-pyrazolo[4,3-b]pyridin-5-yl)pyrazin-2-yl)azetidin-3-amine] | > 10 µM | 12.6%
22 | Cc1cn(-c2cccc3[nH]c(-c4n[nH]c5ccc(-c6cncc(OCCN(C)C)c6)nc45)nc23)cn1 [Compound 627, N,N-Dimethyl-2-((5-(3-(4-(4-methyl-1H-imidazol-1-yl)-1H-benzo[d]imidazol-2-yl)-1H-pyrazolo[4,3-b]pyridin-5-yl)pyridin-3-yl)oxy)ethan-1-amine] | > 10 µM | 38.1%
23 | CN1CCN(c2cccc3[nH]c(-c4n[nH]c5ccc(-c6cnccn6)nc45)nc23)CC1 [Compound 648, 3-(4-(4-Methylpiperazin-1-yl)-1H-benzo[d]imidazol-2-yl)-5-(pyrazin-2-yl)-1H-pyrazolo[4,3-b]pyridine] | > 10 µM | 37.9%
24 | c1ccc2[nH]c(-c3n[nH]c4ccc(-c5cn[nH]c5)nc34)nc2c1 [Compound 651, 3-(1H-Benzo[d]imidazol-2-yl)-5-(1H-pyrazol-4-yl)-1H-pyrazolo[4,3-b]pyridine] | > 10 µM | 40.2%
25 | c1ccc2[nH]c(-c3n[nH]c4ccc(-c5cncc(OC6CCNCC6)c5)nc34)nc2c1 [Compound 656, 3-(1H-Benzo[d]imidazol-2-yl)-5-(5-(piperidin-4-yloxy)pyridin-3-yl)-1H-pyrazolo[4,3-b]pyridine] | > 10 µM | 4.9%
26 | Oc1cncc(-c2ccc3[nH]nc(-c4nc5ccccc5[nH]4)c3n2)c1 [Compound 661, 5-(3-(1H-Benzo[d]imidazol-2-yl)-1H-pyrazolo[4,3-b]pyridin-5-yl)pyridin-3-ol] | > 10 µM | 32.4%
